Source: ChEMBL document CHEMBL4177522, “Effects of new fluorinated analogues of GABA, pregabalin bioisosters, on the ambient level and exocytotic release of [3H]GABA from rat brain nerve terminals” (Bioorg Med Chem, 2017)

System: not listed separately
Assay: Effect on ambient level of [3H]GABA in Wistar rat synaptosomes assessed as [3H]GABA level at 100 uM preincubated for 20 mins in presence of GAT1 specific blocker NO-711 (reference value: 25.07 +/- 2.1%)
Type: ADME, subcellular, Synaptosome

Row | Structure (SMILES) | Activity [%]
1 | NC[C@@H](CC(=O)O)C(F)(F)F | 24.86
2 | NC[C@@](O)(CC(=O)O)C(F)(F)F | 27.9
3 | CC(C)C[C@H](CN)CC(=O)O [PREGABALIN] | 24.34
4 | NCC(CC(=O)O)C(F)(F)C(F)F (racemic) | 26.6

System: not listed separately
Assay: Effect on ambient level of L-[3H]glutamate in Wistar rat synaptosomes assessed as L-[3H]glutamate level at 100 uM preincubated for 20 mins (reference value: 24.68 +/- 1.49%)
Type: ADME, subcellular, Synaptosome

Row | Structure (SMILES) | Activity [%]
5 | NC[C@@H](CC(=O)O)C(F)(F)F | 24.75
6 | NC[C@@](O)(CC(=O)O)C(F)(F)F | 22.72
7 | CC(C)C[C@H](CN)CC(=O)O [PREGABALIN] | 26.2
8 | NCC(CC(=O)O)C(F)(F)C(F)F (racemic) | 25.29

Species: Rattus norvegicus
Assay: Decrease in KCl-induced exocytotic release of [3H]GABA in Wistar rat synaptosomes at 100 uM preincubated for 20 mins followed by Kcl addition in Ca2+ containing media measured after 5 mins
Type: functional, subcellular
Set-up: scale not given: the % may be the effect or the level left

Row | Structure (SMILES) | Activity [%]
9 | NC[C@@H](CC(=O)O)C(F)(F)F | 26
10 | NC[C@@](O)(CC(=O)O)C(F)(F)F | 35
11 | CC(C)C[C@H](CN)CC(=O)O [PREGABALIN] | 15
12 | NCC(CC(=O)O)C(F)(F)C(F)F (racemic) | 33

System: not listed separately
Assay: Induction of plasma membrane depolarization in Wistar rat synaptosomes at 100 uM by rhodamine 6G based spectrofluorimeteric method
Type: subcellular, Synaptosome

Row | Structure (SMILES) | Activity
13 | NC[C@@H](CC(=O)O)C(F)(F)F | Non-Toxic
14 | NC[C@@](O)(CC(=O)O)C(F)(F)F | Non-Toxic
15 | CC(C)C[C@H](CN)CC(=O)O [PREGABALIN] | Non-Toxic
16 | NCC(CC(=O)O)C(F)(F)C(F)F (racemic) | Non-Toxic

System: not listed separately
Assay: Effect on ambient level of [3H]GABA in Wistar rat synaptosomes assessed as [3H]GABA level at 100 uM preincubated for 20 mins (reference value: 14.20 +/- 1.03%)
Type: ADME, subcellular, Synaptosome

Row | Structure (SMILES) | Activity [%]
17 | NC[C@@H](CC(=O)O)C(F)(F)F | 13.35
18 | NC[C@@](O)(CC(=O)O)C(F)(F)F | 15.55
19 | CC(C)C[C@H](CN)CC(=O)O [PREGABALIN] | 14.1
20 | NCC(CC(=O)O)C(F)(F)C(F)F (racemic) | 14.63

System: not listed separately
Assay: Induction of plasma membrane hyperpolarization in Wistar rat synaptosomes at 100 uM by rhodamine 6G based spectrofluorimeteric method
Type: subcellular, Synaptosome

Row | Structure (SMILES) | Activity
21 | NC[C@@H](CC(=O)O)C(F)(F)F | Non-Toxic
22 | NC[C@@](O)(CC(=O)O)C(F)(F)F | Non-Toxic
23 | CC(C)C[C@H](CN)CC(=O)O [PREGABALIN] | Non-Toxic
24 | NCC(CC(=O)O)C(F)(F)C(F)F (racemic) | Non-Toxic
